Experimental data published in US10583123B2, “Method for the treatment of ATG4-related disorders” (National Tsing Hua University, priority 2017, dated 2020).

Assays:
HCT116 cells [1] = assay: Caspase-3 activation (Caspase-Glo 3/7, immunoblotting of caspase-3 and PARP); type: cell-based, human; conditions: for caspase-3/7 activity and cleavage of caspase-3 and PARP: cells exposed to Dox (1 μM) alone or co-treated with tioconazole (40 μM)
Description: The cell lysates were used for immunoblotting with antibodies against the primary antibodies against ATG4B (A2981), LC3 (L7543), and ACTB (β-actin, A5441) (all purchased from Sigma-Aldrich). […] The membrane was scanned and analyzed for the protein expression level with the ChemiDoc XRS Imaging System (Bio-Rad).

ATG4B [2] = molecular target: T1, ATG4B (Homo sapiens, UniProt Q9Y4P1); assay: ATG4B reporter yeast cell-based assay; conditions: ATG4 reporter yeast cells, FIG. 2
T1 sequence (Q9Y4P1 1-393): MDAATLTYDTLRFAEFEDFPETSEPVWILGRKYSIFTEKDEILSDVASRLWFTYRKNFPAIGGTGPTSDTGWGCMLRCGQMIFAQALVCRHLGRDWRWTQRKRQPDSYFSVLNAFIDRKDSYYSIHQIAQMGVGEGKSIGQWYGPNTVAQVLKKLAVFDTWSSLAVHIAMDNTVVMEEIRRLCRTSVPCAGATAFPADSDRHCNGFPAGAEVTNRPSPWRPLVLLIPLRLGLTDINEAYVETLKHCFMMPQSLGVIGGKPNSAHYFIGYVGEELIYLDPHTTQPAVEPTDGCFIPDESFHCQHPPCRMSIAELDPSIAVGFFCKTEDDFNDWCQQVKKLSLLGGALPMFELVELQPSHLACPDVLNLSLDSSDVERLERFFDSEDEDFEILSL
Description: (§1) Quantitative results are shown in each panel (n=4). […] Bar: 100 μm.
FIGS. 55-58 show the characterization of yeast based ATG4B reporter assay for hts. (FIG. 55) Two-fold serial titrated yeast that harbored the LC3 reporter with wild type ATG4B (WT) or catalytic mutant (C74A) expression vector and reporter vector were seeded into a 384-well plate for 24 or 48 h. The substrate of […] X-gal (80 μg/ml) was included in the SD medium for the colorimetric assay. (FIG. 56) Beta-Glo was added into each well as (A) at 24 or 48 h to optimize the yeast concentration for the luminescent substrate. (FIG. 57) Yeast that harbored the wild type (WT) ATG4B and catalytic mutant (C74A) were used to determine the ratio of signal (WT)/background (C74A) and compare the sensitivity between the colorimetric and luminescent substrates. (FIG. 58) […] of yeast reporter cells (1.5×10^4 cells/ml) as previously described were seeded into a 384-well white plate for 24 h. Ten μl of the luminescent substrate Beta-Glo was added to each well, and the luminescent signal was read to determine the ATG4B activity. The luminescent signal between the wild type (WT) ATG4B and catalytic mutant (C/A) was used to determine the assay robustness (Z′ factor: 0.78).

HCT116 cells [3] = conditions: Tc 40 μM, versus untreated cells
Description: HCT116 cells treated with T2 (40 μM), CQ (20 μM) for 8 h were rinsed with PBS once and fixed in 2% glutaraldehyde at room temperature for 30 min. The cells were harvested to postfix with 1% osmium tetroxide and stained with 2% uranyl acetate (Agar Scientific) at room temperature for 1 h. The cell pellets were embedded to obtain 80 nm sections with a diamond knife. The sections were stained with 2% uranyl acetate and 0.3% lead citrate (Agar Scientific) and imaged with a JEM1400 PLUS transmission electron microscope (JEOL).
The autophagy inhibitor CQ was used as a positive control. Bar: 20 μm. […] Representative autophagic vacuoles (AVs) are shown. Arrowhead: autophagosome. Bar: 200 nm. (FIG. 22) The numbers of AVs for each optical section (9 m^2) are quantified (n=8).

[4] = test system: H4, HCT116 or MDA-MB-231 cells
Description: The cells were briefly rinsed in PBS (Biological Industries, 02-023-1) and lysed with RIPA buffer (1% NP40 [MDBio, 101-9016-45-9], 50 mM Tris HCl, pH 7.5, 150 mM NaCl, 0.25% sodium deoxycholate [Sigma-Aldrich, D6750], 1% sodium dodecyl sulfate [SDS; Calbiochem, 428015], and protease inhibitor cocktail [Roche, 11873580001]). The cell lysates were used for immunoblotting with antibodies against the primary antibodies against ATG4B (A2981), LC3 (L7543), and ACTB (β-actin, A5441) (all purchased from Sigma-Aldrich). The differential accumulations of LC3 in cells with and without CQ were used to quantitate the autophagic flux (Mizushima et al., 2010). […] The proteins were probed with an HRP-labeled secondary antibody (Santa Cruz, sc-2004 or sc-2005) and detected with an ECL reagent. The membrane was scanned and analyzed for the protein expression level with the ChemiDoc XRS Imaging System (Bio-Rad).
The autophagy inhibitor CQ was used as a positive control. […] (FIG. 24) HCT16 cells were transfected with siRNA (5 nM) for 66 h and then treated with CQ (20 μM) for 2 h. Cells were harvested for immunoblotting using antibodies against LC3, ATG4B or ACTB, and autophagy flux was quantified in untreated cells and cells treated with CQ based on changes in LC3-II. […] (FIG. 26) The autophagic flux was quantified as described in FIG. 25.

HCT116 and H4 cells = conditions: Dox-treated cells, Tc 40 μM, JC-1
Description: For the MMP analysis, the cells were treated with JC-1 (5,5,6,6-tetrachloro-1,1,3,3-tetraethyl-benzimidazolylcarbocyanine iodide, Invitrogen) at 37° C. for 20 min prior to harvesting.

HCT116 cells [5] = assay: FACS cell cycle distribution, subG1 population; conditions: Dox 1 μM, 24 h
ATG4 = ATG4 (Homo sapiens, UniProt Q9Y4P1); conditions: HEK293T cells, FIG. 8
Description: For the ATG4 cleavable reporter assay in mammalian cells, the N-terminus (NLuc, residues 2-416) and C-terminus (CLuc, residues 398-550) of the luciferase gene were constructed in the expression vector pcDNA3.0. […] The luciferase activity was measured via One-Glo (Promega) according to the instruction manual. The non-cleavable mutant G120A was used to normalize the luminescent signal and determine the ATG4 activity.
Quantitative results are shown in each panel (n=4). […] (FIG. 7) The expression vector that encoded ATG4-cleavable luciferase was constructed with LC3 and a luciferase chimera gene, as shown in the schematic diagram (upper panel). HEK293T cells were transfected with scramble siRNA (siCtrl) or siRNA against ATG4B (siATG4B) for 48 h, followed by transfection with the ATG4 reporter vector for 24 h. The luciferase activity was measured with a luminescent reader (n=6), and the knockdown efficiency of ATG4B was determined using immunoblotting. […] The cleavage of LC3 and luciferase chimera protein by ATG4 in cells treated with Tc or untreated cells was verified via immunoblotting (upper panel).
Briefly, LC3 was constructed to split N-terminal and C-terminal luciferase in a mammalian expression vector, as indicated (FIG. 7).

ATG4B [6] = molecular target: T1, ATG4B; assay: biochemical
Description: (§2) The fluorescence intensity was kinetically monitored for 1 h to determine the ATG4 activity at room temperature with excitation and emission wavelengths of 485 and 530 nm, respectively.
(§3) For cleavage of GABARAPL2-PLA2 and caspase-3 activation, reaction mixtures or cell lysates were immunoblotted with antibodies against Myc (Roche, 11667149001), caspase-3 (Cell Signaling, 9661), PARP (Cell Signaling, 9532) and GAPDH (Cell Signaling, 5174).
(§4) (FIG. 5) ATG4B (1 nM) or (FIG. 6) ATG4A (50 nM) was mixed with 10-fold serially diluted Tc and 500 nM GABARAPL2-PLA2 for 1 h. The cleavage of GABARAPL2-PLA2 was validated with immunoblotting using an anti-Myc antibody.

ATG4B [7] = molecular target: T1, ATG4B; conditions: ATG4B 1 nM, 500 nM GABARAPL2-PLA2, 1 h, anti-Myc
Description: as §2, §3, §4

ATG4A [8] = molecular target: T2, ATG4A (Homo sapiens, UniProt Q8WYN0); conditions: ATG4A 50 nM, 500 nM GABARAPL2-PLA2, 1 h, anti-Myc
Description: as §2, §3, §4

[9] = test system: H4 cells that stably express GFP-LC3; conditions: tioconazole 8 h
Description: The treated cells were fixed to observe the GFP-LC3 puncta via fluorescence microscopy. For protein colocalization, the H4 stable cells previously described were transfected with 1 μg plasmids Cherry tagged ATG4B or Lamp1-RFP (Addgene, 1817) for 36 h using Lipofectamine 2000 (Invitrogen).
(FIG. 17) Human glioma H4 cells that stably express GFP-LC3 were transfected with 5 nM non-targeting siRNA (Ctrl) or siRNA against ATG4 family members (ATG4) for 48 h, and the knockdown efficiency of ATG4 was verified with real time PCR. (FIG. 18) The knockdowned cells were fixed for observation via fluorescence microscopy, and the number of GFP-LC3 puncta is quantified in the right panel. […] The autophagy inhibitor CQ was used as a positive control. […] Representative autophagic vacuoles (AVs) are shown. […] (FIG. 22) The numbers of AVs for each optical section (9 m^2) are quantified (n=8). (FIG. 23) HCT116 cells expressing GFP-LC3 and RFP-Lamp1 were treated with Tc for 6 h and fixed to observe colocalization of GFP-LC3 and RFP-Lamp1 with confocal microscopy. […] The colocalization coefficients of images were quantified by the Ziess LSM 710 Software and are shown in the right panel. […] Cells were harvested for immunoblotting using antibodies against LC3, ATG4B or ACTB, and autophagy flux was quantified in untreated cells and cells treated with CQ based on changes in LC3-II. […]

HCT116 spheroids = conditions: 48 h
Description: The cells (4000 cells/well) were seeded into an ultra-low attachment, 96-well plate (Costar®, USA) and grown overnight to form spheroid cells. […] The spheroid cells were stained with Calcein AM (1 μM) and Ethidium homodimer-1 (EthD-1, 2 μM) (LIVE/DEAD® Viability/Cytotoxicity Kit, ThermoFisher Scientific) for 30 minutes. The live (green) and dead (red) spheroid cells were imaged via fluorescence microscopy and quantitated using a Fluoroskan Ascent FL reader (Thermo Fisher Scientific) with excitation at 485 nm and emissions at 530 nm and 645 nm for calcein AM and EthD-1, respectively.
(FIG. 44) HCT116 cells were cultured in an ultra-low attachment dish for 24 h to form spheres. […] Scale bar: 400 μm. (FIG. 45) The relative sphere volume was quantified using DMSO-treated cells as the normalized control. (FIG. 46) HCT116 sphere-forming cells treated as (A) were lysed to measure ATP levels and assess cell viability. […] The viable and dead spheres were imaged with a LIVE/DEAD staining kit. The knockdown efficiency of ATG genes was verified by immunoblotting (left panel) (FIG. 48) The red fluorescence of the spheres in FIG. 47 was quantitated with a reader to assess the dead cell population (n=6).

[10] = test system: H4, HCT116 and MDA-MB-231 cells; assay: Cell viability assay (CellTiter-Glo, cellular impedance); type: cell-based, human
Description: Cells were seeded into a 384-well plate overnight and treated with various drugs for 24 h. CellTiter-Glo (Promega, Madison, Wis., USA) was subsequently added to the treated cells, and the luminescence was read using a Fluoroskan Ascent FL reader (Thermo Fisher Scientific). Alternatively, the cell viability was monitored with an impedance-based instrument system (iCELLigence, ACEA Biosciences) for live cells. Briefly, H4 cells, HCT116 cells and MDA-MB-23 cells (4×10^4 cells/well) were seeded into electronic plates (E-Plates L8, ACEA Biosciences) with 400 μl of DMEM that contained 10% FBS and incubated for 30 h. […] The cellular impedance was periodically measured every 15 minutes until 80 h.
The cell viability was accessed with CellTiter-Glo.

[11] = test system: HCT116 and H4 cells expressing GFP-LC3 and RFP-Lamp1; conditions: Tc 6 h, confocal microscopy
Description: Human colorectal cancer HCT116 cells, glioblastoma H4 cells and breast cancer MDA-MB-231 from the ATCC were cultured in Dulbecco's modified Eagle's medium (DMEM) (Invitrogen, 12100-046) supplemented with 10% HyClone fetal bovine serum, penicillin (100 U/ml), and streptomycin (100 mg/ml). […] The treated cells were harvested to determine cell viability, apoptosis and immunoblotting.
The treated cells were fixed to observe the GFP-LC3 puncta via fluorescence microscopy.
(FIG. 23) HCT116 cells expressing GFP-LC3 and RFP-Lamp1 were treated with Tc for 6 h and fixed to observe colocalization of GFP-LC3 and RFP-Lamp1 with confocal microscopy. GFP-LC3 that had colocalized with or was surrounded by RFP-Lamp1 was identified as fusion between autophagosomes and lysosomes. The colocalization coefficients of images were quantified by the Ziess LSM 710 Software and are shown in the right panel. Bar: 20 m.

ATG4B and LC3 complex = ATG4B and LC3 complex (Homo sapiens, UniProt Q9Y4P1); conditions: HEK293T cells, flow cytometry
Description: The plasmids (1 μg/well) were transfected with lipofectamine 2000 transfection reagent (Life Technologies, 11668-027) into HEK293T cells in a 6-well plate for 24 h. The cells were imaged via fluorescence microscopy or harvested to quantify the fluorescence intensity via a flow cytometer (Becton Dickinson).
After overnight culture, the cells were fixed to observe Venus complementary under fluorescence microscopy (right panel). […] (FIG. 10) The transfected cells were treated with Tc for 8 h and fixed for flow cytometry to quantify Venus fluorescence using GFP as a counter assay.
The cells were fixed to determine Venus complementation with flow cytometry and quantitated with FlowJo. HEK 293T cells transfected with or without GFP expression vector were used as the blank and counter controls, respectively.

ATG4A [12] = molecular target: T2, ATG4A; assay: biochemical
Description: as §2, §3, §4

ATG4B [13] = molecular target: T1, ATG4B; assay: LC3-PLA2 biochemical ATG4 reporter assay; conditions: FIG. 2 and 4
Description: as §1

[14] = tioconazole-treated mice, immunohistochemistry

T2 sequence (Q8WYN0 whole entry): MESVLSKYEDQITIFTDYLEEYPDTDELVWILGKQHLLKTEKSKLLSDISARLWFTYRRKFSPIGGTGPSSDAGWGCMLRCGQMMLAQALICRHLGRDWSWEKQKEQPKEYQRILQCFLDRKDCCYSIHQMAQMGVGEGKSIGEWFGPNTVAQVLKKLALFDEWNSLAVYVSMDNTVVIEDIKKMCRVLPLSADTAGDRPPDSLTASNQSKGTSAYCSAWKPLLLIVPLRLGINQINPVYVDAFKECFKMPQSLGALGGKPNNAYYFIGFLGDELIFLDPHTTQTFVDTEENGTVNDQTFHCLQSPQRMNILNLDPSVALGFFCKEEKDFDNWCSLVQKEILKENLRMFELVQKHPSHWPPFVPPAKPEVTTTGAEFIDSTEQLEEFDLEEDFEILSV
Description for HCT116 xenograft tumors: Human colorectal cancer HCT116 cells (2×10^6) were mixed with Matrigel (1:1) and subcutaneously implanted into six-week old immunodeficient mice (nu/nu, female). […] The tumor size in each mouse was measured every 3 to 4 days with vernier calipers, and the tumor volumes were calculated using the formula (larger diameter)×(smaller diameter)2×7π/6. Tumors were further cut from euthanized mice and embedded in paraffin. […] The protein levels in the tumor sections were determined using the UltraVision™ Quanto Detection System HRP DAB (Thermo Scientific) and observed under microscopy.
The tumor volume (circle) in each mouse was measured every 3 to 4 days (5 per group). The p values were determined with an ANOVA. […] The quantified results were obtained from at least 1500 cells and are shown in the right panel. p>0.05; *p<0.05; **p<0.01; ***p<0.001.

COc1cccc2c1C(=O)c1c(O)c3c(c(O)c1C2=O)C[C@@](O)(C(=O)CO)C[C@@H]3O[C@H]1C[C@H](N)[C@H](O)[C@H](C)O1 [Dox, Doxorubicin]
caspase-3/7 activity and cleavage of caspase-3 and PARP (HCT116 cells [1]): significantly elevated

Clc1ccc(C(Cn2ccnc2)OCc2ccsc2Cl)c(Cl)c1 (stereo not shown) [tioconazole]
inhibition in the yeast cell-based assay (ATG4B [2]): strong inhibition | number of autophagosomes (TEM) (HCT116 cells [3]): increased | xenograft tumor weight (HCT116 xenograft tumors; Tc 60 mg/kg intraperitoneal every other day, day 21): reduced the xenograft tumor weight | sensitivity of xenograft tumors to Dox (HCT116 xenograft tumors; Tc 60 mg/kg with Dox 1 mg/kg intraperitoneal every other day): sensitized xenograft tumors to Dox | levels of cleaved caspase-3 in tumor tissues (HCT116 xenograft tumors; [14]): significantly increased | number of LC3 puncta in tumor tissues (HCT116 xenograft tumors; [14]): significantly increased | autophagic flux (LC3-II accumulation with and without CQ) ([4]; Tc 6 h, with or without CQ 20 μM): significantly attenuated autophagic flux | LC3-II turnover and SQSTM1 degradation triggered by starvation and chemotherapeutic drugs ([4]; cancer cells, starvation or CPT/Dox 24 h, immunoblotting): blocked LC3-II turnover and SQSTM1 degradation | mitochondrial membrane potential (MMP) (HCT116 and H4 cells): reduction of mitochondrial membrane potential | cell death in combination with Dox (subG1 proportion) (HCT116 cells [5]): synergistically increased cell death | luciferase activity in ATG4 reporter cells (ATG4): increased the luciferase activity | cleavage of chimera luciferase in reporter cells (ATG4; immunoblotting): attenuated the cleavage of chimera luciferase | caspase-3/7 activity and cleavage of caspase-3 and PARP (HCT116 cells [1]): significantly elevated | IC50 (ATG4B [6]): 1800 ± 160 nM | cleavage of GABARAPL2-PLA2 by ATG4B (immunoblotting) (ATG4B [7]): blocked the cleavage | cleavage of GABARAPL2-PLA2 by ATG4A (immunoblotting) (ATG4A [8]): blocked the cleavage | GFP-LC3-II puncta [9]: accumulation of GFP-LC3-II puncta | size of tumor spheroids (HCT116 spheroids; HCT116 spheroids, Tc 40 μM): significantly decreased the size of tumor spheroids | cytotoxicity of Dox in spheroids (ATP levels, number of dead cells) (HCT116 spheroids; Tc 40 μM with Dox 1 μM): enhanced the cytotoxicity of Dox | Dox-induced cell death in spheres with scramble shRNA and shRNA against ATG4B (HCT116 spheroids; Tc 40 μM, Dox 1 μM, LIVE/DEAD staining): enhanced Dox-induced cell death | cytotoxic effects of starvation and chemotherapy ([10]; cancer cell lines, tioconazole 40 μM combined with starvation or chemotherapeutic drugs): enhanced the cytotoxic effects of starvation and chemotherapy | cell viability ([10]; cancer cell lines, tioconazole 40 μM, cellular ATP levels or impedance): significantly reduced the cell viability | co-localization of LC3 and LAMP1 [11]: decreased the co-localization of LC3 and LAMP1 | fluorescence from formation of the ATG4B and LC3 complex (BiFC) (ATG4B and LC3 complex; Tc 8 h): reduced the fluorescence | GFP fluorescence (counter assay) (ATG4B and LC3 complex): did not affect GFP fluorescence | IC50 (ATG4A [12]): 1300 ± 180 nM

Clc1ccc(COC(Cn2ccnc2)c2ccc(Cl)cc2Cl)c(Cl)c1 (stereo not shown) [miconazole]
cell death in combination with Dox (subG1 proportion) (HCT116 cells [5]): less potently synergized with Dox | inhibitory effect on ATG4B compared with tioconazole (ATG4B [13]): failed to exhibit as good inhibitory effect on ATG4B as tioconazole

z-VAD-fmk
caspase-3 activation after pretreatment (HCT116 cells [1]; zVAD-FMK 50 μM, cells treated with tioconazole and Dox): blocked caspase-3 activation | apoptotic effects of tioconazole and Dox after pretreatment (cell viability) ([10]; zVAD-FMK 50 μM pretreatment, Tc 40 μM, Dox 1 μM 24 h): rescued the apoptotic effects
